Experiments:
Format in all cases: ADME
[1] = Half-life by fluorescence method at 30 degrees C
[2] = Half-life by fluorescence method at 25 degrees C
[3] = Half-life by fluorescence method at 37 degrees C

half-life [1]: 4.6 h
half-life [2]: 11 h
half-life [3]: 2.2 h
Compound: C[C@H]1NC(=O)CC2([C@@](C)(O)C(=O)O)CC[C@@](C)(n3cnc4nc(N)nc(O)c43)[C@@H](S2)[C@@H](O)C(=O)/C=C/C=C\c2csc1n2
